Assay results as given in patent US20210106567A1, “COMPOSITIONS AND METHODS FOR INHIBITING CARP-1 BINDING TO NEMO” (United States Government As Represented By The Department …, priority 2019, published 2021).

Legend:
[1] = biological target: T1, NEMO interaction with RIPK1 (Homo sapiens, UniProt Q13546+Q9Y6K9); assay: IP-WB in Gst-NEMO expressing HBC cells, RIPK1; format: cell-based; conditions: alone or in combination with Adriamycin
T1 construct: expressed in transfected cells; host or cells: HBC cells stably expressing Gst-NEMO
T1 sequence (Q9Y6K9 whole entry): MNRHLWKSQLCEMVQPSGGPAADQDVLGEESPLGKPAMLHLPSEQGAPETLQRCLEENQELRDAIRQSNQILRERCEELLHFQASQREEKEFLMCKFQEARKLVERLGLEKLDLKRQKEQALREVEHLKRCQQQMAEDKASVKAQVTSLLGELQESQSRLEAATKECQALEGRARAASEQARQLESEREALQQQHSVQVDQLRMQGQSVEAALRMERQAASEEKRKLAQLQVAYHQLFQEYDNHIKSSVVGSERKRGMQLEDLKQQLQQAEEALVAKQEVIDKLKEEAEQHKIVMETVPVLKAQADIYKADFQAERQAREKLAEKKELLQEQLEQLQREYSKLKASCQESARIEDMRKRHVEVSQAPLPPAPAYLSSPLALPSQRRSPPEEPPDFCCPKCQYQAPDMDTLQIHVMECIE
T1 sequence (Q13546 whole entry): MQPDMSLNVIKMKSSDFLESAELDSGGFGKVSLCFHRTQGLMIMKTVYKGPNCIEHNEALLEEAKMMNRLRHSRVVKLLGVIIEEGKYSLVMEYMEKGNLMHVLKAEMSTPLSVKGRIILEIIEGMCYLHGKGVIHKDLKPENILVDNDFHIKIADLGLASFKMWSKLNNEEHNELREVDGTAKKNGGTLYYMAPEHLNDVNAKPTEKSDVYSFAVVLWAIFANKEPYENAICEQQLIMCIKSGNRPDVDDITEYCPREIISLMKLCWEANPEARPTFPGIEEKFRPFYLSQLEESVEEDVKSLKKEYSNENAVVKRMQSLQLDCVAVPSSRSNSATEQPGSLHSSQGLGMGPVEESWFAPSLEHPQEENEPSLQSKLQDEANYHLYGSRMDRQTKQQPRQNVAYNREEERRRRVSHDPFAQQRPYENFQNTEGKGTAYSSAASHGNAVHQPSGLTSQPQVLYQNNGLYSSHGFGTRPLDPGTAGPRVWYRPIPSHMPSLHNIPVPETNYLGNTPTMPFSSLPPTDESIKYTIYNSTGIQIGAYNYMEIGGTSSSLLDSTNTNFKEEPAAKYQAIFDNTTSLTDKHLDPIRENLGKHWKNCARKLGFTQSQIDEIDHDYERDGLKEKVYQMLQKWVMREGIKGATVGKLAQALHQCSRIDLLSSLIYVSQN
Procedure: The biochemical mechanism of inhibition of CARP-1 (551-580; SEQ ID NO: 6) binding with NEMO (221-261; SEQ ID NO: 2) by SNI-1 was assessed. E. coli expressed Gst-NEMO (221-261; SEQ ID NO: 2) and His-TAT-HA-CARP-1 (551-580; SEQ ID NO: 6) peptides in IP-WB assays were used. […] Since Adriamycin activates ATM to regulate canonical NF-κB and DSB repair pathways, it remains to be clarified whether CARP-1 regulates RIPK1 signaling dependent and/or independent of ATM.
(§1) The cells were lysed to prepare protein extracts.

MDR1 = assay: Levels of drug efflux pump MDR1; format: cell-based, human; conditions: MDA-MB-468 cells
Excerpt: Of note is that SNI-1 in combination with Adriamycin provoked a greater inhibition of tumor growth when compared with the tumor growth inhibition noted in animals treated with either agent alone. […] Since TNBCs and many other cancers are often known to express drug efflux pumps that contribute to lower efficacy of drugs in clinic and development of drug-resistant tumors, it is likely that the presence/expression of these drug efflux pumps function in part to interfere with a robust anti-tumor response to a combination of SNI-1 and Adriamycin.

[2] = Dose-route determination in non-tumor-bearing mice; format: in vivo, mouse; conditions: 5% DMSO, 5% ethanol, 2% Tween 80 formulation
[3] = system: follicular cell lymphoma cells; assay: Cell viability, lymphoma; format: cell-based; conditions: Homo sapiens; read-out: IC50, reduced viabilities
[4] = system: parental and chemo-resistant human and murine TNBC cells and parental renal cancer cells; assay: Cytokine ELISA of culture media, chemotherapy-induced secretion; format: cell-based; conditions: SNI-1 with Adriamycin or Cisplatin
4T1 TNBC cells = assay: MTT cell viability; format: cell-based, murine; conditions: Mus musculus, 72 h
Procedure: (§2) The murine TNBC cell line 4T1 that was derived from a spontaneously arising BALB/c mammary tumor were obtained from the Karmanos Cancer Institute (KCl), and were maintained in culture (Cheriyan et al. (2016) Oncotarget 7, 73370-73388). […] The cell culture media were also supplemented with 10% FBS, 100 units/ml of penicillin, and 100 μg/ml of streptomycin, and the cells were maintained at 37° C. and 5% CO2. For cell growth and MTT studies, the cells were cultured in fresh media with 5%-10% FBS prior to their treatments with various agents.
(§3) Cell Viability, Immunoprecipitation and Western Blot assays: 500-1000 cells were seeded in each well of 96 well plate and then either untreated (control) or treated with various agents for noted times. After treatment, MTT reagent was added at 0.5 mg/ml concentration for 2-4 hours at 37° C. DMSO was added to solubilize formazan and the plate was read at 570 nm in a plate reader. The histograms indicating levels of cell viability were generated by plotting the net absorbances (Rishi et al. (2003) J Biol Chem 278, 33422-33435; and Rishi et al. (2006) J Biol Chem 281, 13188-13198).

MTT cell viability = format: cell-based, murine; conditions: mouse, 4T1 TNBC cells; 1.0, 2.5, 5.0, or 10.0 μM over 24 h; read-out: loss of viability
Procedure: as §2, §3

cleaved RIPK1 = assay: Western blot for RIPK1 cleavage; format: cell-based
Excerpt: as §1

HeLa CARP-1 ko cells = assay: MTT cell viability; format: cell-based, human
[5] = system: p65/RelA activation and phosphorylation of NEMO; assay: Western blot for canonical NF-κB activation; format: cell-based; conditions: in presence of SNI-1
Excerpt: as §1

[6] = biological target: T2, Flag-CARP-1 (546-580) binding with Biotin-NEMO (221-261) (Homo sapiens, UniProt Q8IX12); assay: AlphaLISA assay of CARP-1/NEMO peptide binding (HTS format); conditions: biphasic, read-out: IC50, inhibition of binding of CARP-1 (546-580) with NEMO (221-261) peptide
T2 construct: Flag-tagged CARP-1 (546-580); purchased Peptides America, Fairfax, Va; host or cells: chemical synthesis
T2 sequence (Q8IX12 546-580 limits assumed): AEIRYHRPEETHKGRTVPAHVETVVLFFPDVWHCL
Excerpt: The predicted kinetics of interaction of CARP-1 (551-600; SEQ ID NO: 5) and NEMO (221-261; SEQ ID NO: 2) epitopes was further validated by utilizing respective, chemically synthesized peptides to determine their in-solution binding by SPR technology (Sekhar et al. (2019) Cancers (Basel) 11). […] On the collective basis of the data in FIG. 1, and biophysical and SPR data above, in vitro binding assays were developed utilizing chemically synthesized CARP-1 and NEMO peptides. In the first instance, CARP-1 (551-580; SEQ ID NO: 6) and NEMO (221-261; SEQ ID NO: 2) peptides were used to carry out buffer optimization and DMSO tolerance of the assay. […] Presence of 0.01% tween minimizes non-specific binding and generates higher reproducibility as noted by smaller error bars in FIG. 15A. […]
The AlphaLISA assay for high throughput screening: For screening of a library of chemical compounds, an […] assay was developed and optimized for use in 384-well format (SAMDI Tech, Chicago, Ill.). […] The assay signal (Fluorescence) was measured at 680 nm excitation and 615 nm emission wavelengths to determine assay robustness and DMSO tolerance. […] The plates were read on a Pherastar FS plate reader. […] Those wells were further analyzed to investigate the 8 compounds individually in duplicate.

human TNBC cells = assay: Cytokine ELISA of culture media; format: cell-based; conditions: versus untreated cells

Cc1ccc(-n2nnnc2SCC(=O)c2ccc(O)c(O)c2)cc1 [SNI-1, 1-(3,4-dihydroxyphenyl)-2-{(1-(4-methylphenyl)-1H-tetrazol-5-yl)thio}ethanone]
NEMO interaction with RIPK1 (IP-WB) [1]: not with RIPK1 | levels of drug efflux pump MDR1 (MDR1): robust increase | suitability for chronic intravenous administration [2]: not suitable for chronic intravenous administration | IC50 [3]: ~7.5 µM | secretion of chemotherapy-induced TNFα, IL-8, and IL-1β [4]: robust decline in secretion | IC50 (4T1 TNBC cells): 4 to 4.5 µM | cytotoxicity at 24 h (MTT cell viability): 10 to 20% | expression of cleaved RIPK1 (cleaved RIPK1): induced expression of cleaved RIPK1 | loss of viabilities (HeLa CARP-1 ko cells): failed to provoke any loss of viabilities | p65 activation and NEMO phosphorylation by Adriamycin or Cisplatin [5]: diminished p65 activation and NEMO phosphorylation | IC50 [6]: ~0.3 µM | levels of TNFα and IL-8 in culture media (human TNBC cells): modest increase
